What all share (format): cell-based
One assay deals with HN5 tumor cells. The assay can be described thus: Method C: Cell Growth Inhibition Assay (CellTiter-Glo), HN5. The conditions noted are these: Homo sapiens, 72 h, 3 days, 4-parameter fit. The procedure, abridged:
(§1)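 Growth inhibition is expressed as the concentration giving 50% inhibition relative to vehicle controls, derived from a 4-parameter fit. Tumor cells plated at 500 per well were exposed for 3 days to compound (0.2% DMSO) before total ATP was quantified by CellTiter-Glo.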
For orientation: ATP-based viability assays read luminescence as a measure of living cells.

Assay [1] relates to Colo205 tumor cells. The assay can be described thus: Method B: CellTiter-Glo Growth Inhibition Assay, Colo205. The conditions noted are these: Homo sapiens, COLO 205, 72 h, 3 days. The procedure, abridged: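 Cells plated (BT474 3,000, HN5 500, Colo205 3,000 per well) in RPMI or DMEM with 10% FBS; compounds added next day, final DMSO 0.3%, then 3 days at 37° C, 5% CO2. Viability by CellTiter-Glo luminescence; percent inhibition versus vehicle, IC50 interpolated by nonlinear regression.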

A further assay deals with BT474 tumor cells. The assay can be described thus: Method C: Cell Growth Inhibition Assay (CellTiter-Glo), BT474. The conditions noted are these: Homo sapiens, BT-474, 72 h, 3 days, 4-parameter fit.
For assay [2], the system named is Colo205 tumor cells. The assay can be described thus: Method C: Cell Growth Inhibition Assay (CellTiter-Glo), Colo205. The conditions noted are these: Homo sapiens, COLO 205, 72 h, 3 days, 4-parameter fit. In short, it runs like this:
(§2)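 500 cells/well; next-day compound, 1:3 serial dilutions, 0.2% DMSO final; 3 d, 37° C, 5% CO2. Readout: CellTiter-Glo luminescence (total ATP as cell-number surrogate). IC50 from 4-parameter fit of % growth inhibition vs vehicle.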

For another assay, the system named is SK-MEL-3 tumor cells. The assay can be described thus: Method C: Cell Growth Inhibition Assay (CellTiter-Glo), SK-MEL-3. The conditions noted are these: Homo sapiens, SK-MEL3, 72 h, 3 days, 4-parameter fit. The procedure, abridged: as §2
For the next assay, the system named is HT-29 tumor cells. The assay can be described thus: Method C: Cell Growth Inhibition Assay (CellTiter-Glo), HT-29. To be noted: Homo sapiens, HT-29, 72 h, 3 days, 4-parameter fit. The procedure, abridged: as §1
Another assay has as its system A375P F11s tumor cells. The assay can be described thus: Method C: Cell Growth Inhibition Assay (CellTiter-Glo), A375P F11s. To be noted: Homo sapiens, 72 h, 3 days, 4-parameter fit. The procedure, abridged: as §1

The structures appear in SMILES notation.

With `Cc1nc(-c2cccc(NC(=O)c3c(F)cccc3F)c2)c(-c2ccnc(Nc3ccc(OCCN(C)C)c(Cl)c3)n2)s1` [Example 103, N-[3-(5-{2-[(3-Chloro-4-{[2-(dimethylamino)ethyl]oxy}phenyl)amino]-4-pyrimidinyl}-2-methyl-1,3-thiazol-4-yl)phenyl]-2,6-difluorobenzamide], the IC50 in the assay on HN5 tumor cells was less than 0.1 µM; with Colo205 tumor cells [1], greater than 1 µM; with BT474 tumor cells it was less than 0.1 µM.
For `Cc1nc(-c2cccc(NC(=O)c3cc(F)ccc3F)c2)c(-c2ccnc(Nc3ccc(OCCN(C)C)c(Cl)c3)n2)o1` [Example 142], the IC50 was 0.1 to 1 µM with HN5 tumor cells and greater than 1 µM with Colo205 tumor cells [1].
For the compound `COc1ccc(Nc2nccc(-c3sc(N)nc3-c3cccc(NC(=O)c4c(F)cccc4F)c3)n2)cc1N1CCNCC1` [Example 18, N-[3-(2-Amino-5-{2-[(4-methoxy-3-piperaziN-1-ylphenyl)amino]pyrimidiN-4-yl}-1,3-thiazol-4-yl)phenyl]-2,6-difluorobenzamide], the IC50 is greater than 1 µM in the assay on Colo205 tumor cells [2] and 0.1 to 1 µM in the assay on BT474 tumor cells.
On to `Nc1nc(-c2cccc(C(=O)Nc3c(F)cccc3F)c2)c(-c2ccnc(Nc3cccc(CN4CCCC4)c3)n2)s1` [Example 77, 3-[2-Amino-5-(2-{[3-(1-pyrrolidinylmethyl)phenyl]amino}-4-pyrimidinyl)-1,3-thiazol-4-yl]-N-(2,6-difluorophenyl)benzamide], for which the IC50 is 0.1 to 1 µM in the assay with HN5 tumor cells; less than 0.1 µM in the assay on SK-MEL-3 tumor cells; less than 0.1 µM with Colo205 tumor cells [1]; 0.1 to 1 µM in the assay on HT-29 tumor cells; 0.1 to 1 µM in the assay on A375P F11s tumor cells; 0.1 to 1 µM with BT474 tumor cells.
For the compound `Cc1nc(-c2cccc(NC(=O)c3c(F)cccc3F)c2)c(-c2ccnc(Nc3ccc(OC4CCN(C(=O)OCc5ccccc5)CC4)c(F)c3)n2)s1` [Example 106], the IC50 in the assay on Colo205 tumor cells [2] and with BT474 tumor cells was greater than 1 µM each time.
Turning to `CCNc1nc(-c2cccc(NC(=O)C3CC3)c2)c(-c2ccnc(Nc3ccc(OCCN4CCCC4)c(Cl)c3)n2)s1` [Example 63, N-{3-[5-{2-[(3-Chloro-4-{[2-(1-pyrrolidinyl)ethyl]oxy}phenyl)amino]-4-pyrimidinyl}-2-(ethylamino)-1,3-thiazol-4-yl]phenyl}cyclopropanecarboxamide], the IC50 in the assay on HN5 tumor cells, with SK-MEL-3 tumor cells, in the assay on Colo205 tumor cells [1], in the assay with HT-29 tumor cells, in the assay with A375P F11s tumor cells and in the assay with BT474 tumor cells was 0.1 to 1 µM each time.
On to `Cc1cc(-c2sc(N)nc2-c2cccc(NC(=O)c3c(F)cccc3F)c2)nc(Nc2cccc(F)c2)n1` [Example 48, N-[3-(2-Amino-5-{2-[(3-fluorophenyl)amino]-6-methyl-4-pyrimidinyl}-1,3-thiazol-4-yl)phenyl]-2,6-difluorobenzamide], for which the IC50 in the assay on HN5 tumor cells, with Colo205 tumor cells [2] and in the assay on BT474 tumor cells was greater than 1 µM each time.
On to `COc1cc(Nc2nccc(-c3sc(N)nc3-c3cccc(NC(=O)c4c(F)cccc4F)c3)n2)cc(OC)c1OC` [Example 16, N-[3-(2-Amino-5-{2-[(3,4,5-trimethoxyphenyl)amino]pyrimidiN-4-yl}-1,3-thiazol-4-yl)phenyl]-2,6-difluorobenzamide], for which the IC50 in the assay with HN5 tumor cells is less than 0.1 µM; in the assay with HT-29 tumor cells it was 0.1 to 1 µM; with BT474 tumor cells it was less than 0.1 µM.
In the case of `CCc1nc(-c2cccc(NC(=O)c3c(F)cccc3F)c2)c(-c2ccnc(Nc3cccc(CN4CCCC4)c3)n2)s1` [Example 115, N-{3-[2-Ethyl-5-(2-{[3-(1-pyrrolidinylmethyl)phenyl]amino}-4-pyrimidinyl)-1,3-thiazol-4-yl]phenyl}-2,6-difluorobenzamide], the IC50 in the assay with HN5 tumor cells is 0.1 to 1 µM; in the assay on SK-MEL-3 tumor cells, 0.1 to 1 µM; with HT-29 tumor cells it was 0.1 to 1 µM; in the assay with A375P F11s tumor cells, greater than 1 µM; with Colo205 tumor cells [2], 0.1 to 1 µM; in the assay on BT474 tumor cells, 0.1 to 1 µM.

What is called IC50 is the point on the concentration scale where inhibition reaches its midpoint. A high value points to lower potency.
